Patent US8119644B2, “Thiadiazole-substituted arylamides as P2X3 and P2X2/3 antagonists” (Roche Palo Alto LLP, priority 2008, dated 2012)

How the values were obtained:
human P2X2/3 receptor = biological target: T1, human P2X2/3 receptor (Homo sapiens, UniProt P56373+Q9UBL9); experiment: P2X2/3 FLIPR (Fluorometric Imaging Plate Reader) assay, CHO-K1 cells; assay type: cell-based; details: CHO-K1 cells transfected with human P2X2/3; agonist α,β-meATP 5 μM; Fluo-3 calcium fluorescence; read-out: P2X2/3 (pKi) (converted)
T1 construct: expressed in transfected cells; host or cells: CHO-K1
T1 sequence (Q9UBL9 1-471): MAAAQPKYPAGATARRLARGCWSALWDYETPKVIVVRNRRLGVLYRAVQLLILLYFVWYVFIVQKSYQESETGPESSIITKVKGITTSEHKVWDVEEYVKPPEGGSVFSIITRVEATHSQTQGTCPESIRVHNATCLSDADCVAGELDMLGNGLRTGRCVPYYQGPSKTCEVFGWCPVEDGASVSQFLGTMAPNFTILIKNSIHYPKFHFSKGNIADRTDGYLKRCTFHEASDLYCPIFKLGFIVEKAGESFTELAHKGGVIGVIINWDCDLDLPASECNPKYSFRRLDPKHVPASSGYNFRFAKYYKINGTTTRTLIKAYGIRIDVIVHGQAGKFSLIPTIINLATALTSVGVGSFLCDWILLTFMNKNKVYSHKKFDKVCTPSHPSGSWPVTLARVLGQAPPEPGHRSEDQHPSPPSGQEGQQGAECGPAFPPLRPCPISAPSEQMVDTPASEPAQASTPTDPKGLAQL
T1 sequence (P56373 1-397): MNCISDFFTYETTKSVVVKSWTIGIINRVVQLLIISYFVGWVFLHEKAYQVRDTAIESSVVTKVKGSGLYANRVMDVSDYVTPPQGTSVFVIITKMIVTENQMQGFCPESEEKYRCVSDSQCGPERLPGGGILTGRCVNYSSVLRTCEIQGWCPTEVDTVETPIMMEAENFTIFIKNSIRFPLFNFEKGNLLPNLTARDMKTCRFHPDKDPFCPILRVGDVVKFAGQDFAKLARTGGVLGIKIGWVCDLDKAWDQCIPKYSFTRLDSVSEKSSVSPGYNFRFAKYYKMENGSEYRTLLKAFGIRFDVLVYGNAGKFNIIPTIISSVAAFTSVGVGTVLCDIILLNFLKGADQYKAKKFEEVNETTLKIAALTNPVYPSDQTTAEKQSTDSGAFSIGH
Method: (§1) P2X3/P2X2/3 FLIPR (Fluorometric Imaging Plate Reader) Assay
(§2) CHO-K1 cells were transfected with cloned rat P2X3 or human P2X2/3 receptor subunits and passaged in flasks. 18-24 hours before the FLIPR experiment, cells were released from their flasks, centrifuged, and resuspended in nutrient medium at 2.5×10^5 cells/ml. The cells were aliquoted into black-walled 96-well plates at a density of 50,000 cells/well and incubated overnight in 5% CO2 at 37° C. On the day of the experiment, cells were washed in FLIPR buffer (calcium- and magnesium-free Hank's balanced salt solution, 10 mM HEPES, 2 mM CaCl2, 2.5 mM probenecid; FB). Each well received 100 μl FB and 100 μl of the fluorescent dye Fluo-3 AM [2 μM final conc.]. After a 1 hour dye loading incubation at 37° C., the cells were washed 4 times with FB, and a final 75 μl/well FB was left in each well.
(§3) Test compounds (dissolved in DMSO at 10 mM and serially diluted with FB) or vehicle were added to each well (25 μl of a 4× solution) and allowed to equilibrate for 20 minutes at room temperature. The plates were then placed in the FLIPR and a baseline fluorescence measurement (excitation at 488 nm and emission at 510-570 nm) was obtained for 10 seconds before a 100 μl/well agonist or vehicle addition. The agonist was a 2× solution of α,β-meATP producing a final concentration of 1 μM (P2X3) or 5 μM (P2X2/3). Fluorescence was measured for an additional 2 minutes at 1 second intervals after agonist addition. A final addition of ionomycin (5 μM, final concentration) was made to each well of the FLIPR test plate to establish cell viability and maximum fluorescence of dye-bound cytosolic calcium. Peak fluorescence in response to the addition of α,β-meATP (in the absence and presence of test compounds) was measured and inhibition curves generated using nonlinear regression. PPADS, a standard P2X antagonist, was used as a positive control.

rat P2X3 receptor = biological target: T2, rat P2X3 receptor (Rattus norvegicus, UniProt P49654); experiment: P2X3 FLIPR (Fluorometric Imaging Plate Reader) assay, CHO-K1 cells; assay type: cell-based; details: CHO-K1 cells transfected with cloned rat P2X3; agonist α,β-meATP 1 μM; Fluo-3 calcium fluorescence; read-out: P2X3 (pKi) (converted)
T2 construct: expressed in transfected cells; host or cells: CHO-K1
T2 sequence (P49654 1-397): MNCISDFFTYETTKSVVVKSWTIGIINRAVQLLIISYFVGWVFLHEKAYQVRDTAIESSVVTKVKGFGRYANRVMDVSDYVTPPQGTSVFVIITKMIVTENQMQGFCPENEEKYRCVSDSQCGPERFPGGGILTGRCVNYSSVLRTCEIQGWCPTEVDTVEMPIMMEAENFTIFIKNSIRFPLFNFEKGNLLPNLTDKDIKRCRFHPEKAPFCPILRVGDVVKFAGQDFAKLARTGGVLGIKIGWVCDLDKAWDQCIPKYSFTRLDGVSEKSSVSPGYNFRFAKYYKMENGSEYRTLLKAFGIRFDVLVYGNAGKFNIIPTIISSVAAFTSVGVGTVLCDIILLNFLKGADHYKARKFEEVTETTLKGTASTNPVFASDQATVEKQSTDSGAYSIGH
Method: as §1, §2, §3

Compound: Cc1ccc(-c2cc(C(=O)NCc3cnc(C)nc3)cc(-c3snnc3C(C)C)c2)nc1 [Compound 5, 3-(4-Isopropyl-[1,2,3]thiadiazol-5-yl)-5-(5-methyl-pyridin-2-yl)-N-(2-methyl-pyrimidin-5-ylmethyl)-benzamide]
- Ki (human P2X2/3 receptor): 33.9 nM
- Ki (rat P2X3 receptor): 8.91 nM

Compound: Cc1ccc(-c2cc(C(=O)NCc3cnc(C)cn3)cc(-c3nsnc3C(C)C)c2)nc1 [Compound 7, 3-(4-Isopropyl-[1,2,5]thiadiazol-3-yl)-N-(5-methyl-pyrazin-2-ylmethyl)-5-(5-methyl-pyridin-2-yl)-benzamide]
- Ki (human P2X2/3 receptor): 43.7 nM
- Ki (rat P2X3 receptor): 18.2 nM

Compound: Cc1ccc(-c2cc(C(=O)NCc3cnc(C)cn3)cc(-c3snnc3C(C)C)c2)nc1 [Compound 3, 3-(4-Isopropyl-[1,2,3]thiadiazol-5-yl)-N-(5-methyl-pyrazin-2-ylmethyl)-5-(5-methyl-pyridin-2-yl)-benzamide]
- Ki (human P2X2/3 receptor): 37.2 nM
- Ki (rat P2X3 receptor): 9.12 nM

Compound: COCC(C)NC(=O)c1cc(-c2ccc(C)cc2)cc(-c2csnn2)c1 (stereo not shown) [Compound 2, 4′-Methyl-5-[1,2,3]thiadiazol-4-yl-biphenyl-3-carboxylic acid (2-methoxy-1-methyl-ethyl)-amide]
- Ki (rat P2X3 receptor): 4680 nM

Compound: Cc1ccc(-c2cc(C(=O)N[C@H](C)CO)cc(-c3nsnc3C(C)C)c2)nc1 [Compound 1, N-((R)-2-Hydroxy-1-methyl-ethyl)-3-(4-isopropyl-[1,2,5]thiadiazol-3-yl)-5-(5-methyl-pyridin-2-yl)-benzamide]
- Ki (human P2X2/3 receptor): 72.4 nM
- Ki (rat P2X3 receptor): 6.92 nM

Compound: Cc1ccc(-c2cc(C(=O)N[C@H](C)CO)cc(-c3snnc3C(C)C)c2)nc1 [Compound 4, N-((R)-2-Hydroxy-1-methyl-ethyl)-3-(4-isopropyl-[1,2,3]thiadiazol-5-yl)-5-(5-methyl-pyridin-2-yl)-benzamide]
- Ki (human P2X2/3 receptor): 214 nM
- Ki (rat P2X3 receptor): 4.27 nM

Compound: Cc1ccc(-c2cc(C(=O)NCc3ncc(C)cn3)cc(-c3snnc3C(C)C)c2)nc1 [Compound 6, 3-(4-Isopropyl-[1,2,3]thiadiazol-5-yl)-5-(5-methyl-pyridin-2-yl)-N-(5-methyl-pyrimidin-2-ylmethyl)-benzamide]
- Ki (human P2X2/3 receptor): 105 nM
- Ki (rat P2X3 receptor): 16.6 nM
